melting point [°C]	Structure (SMILES)
95 to 96	O=C(O)CC(O)c1ccc(-c2ccc(Cl)c(Cl)c2)o1 (stereo not drawn)
120 to 122	OCc1cc2c3ccccc3n(Cc3ccccc3)c2cn1
110 to 112	Cc1noc(C)c1S(=O)(=O)n1c(COC(C)C(=O)O)cc2cc(Cl)ccc21 (stereo not drawn)
225 to 227	O=c1[nH]c2ccc([C@H]3CC[C@H](N(CCCc4ccc(F)cc4)Cc4ccoc4)CC3)cc2o1
210 to 212	COCc1cnc2c(NC(=O)c3c(Cl)cccc3Cl)cccc2c1N1CCNC1=O
179 to 181	CNCc1cccc(CN(C)c2nc(=O)c3c(C)c(OC)c(OC)cc3[nH]2)c1
90 to 93	CC(C)(C)c1cc(C=C(C#N)c2ccccn2)cc(C(C)(C)C)c1
251 to 252	NNC(=O)c1ccc2[nH]ncc2c1
48 to 50	CCOC(=O)c1csc(C2CCC2)n1
205 to 207	Oc1cccc(-c2ccc3c(-c4cccnc4)coc3c2)c1
242 to 244	O=S(=O)(Nc1ccc2[nH]c3c(c2c1)CCNC3)c1c(Cl)nc2sccn12
99 to 100	COc1ccc(OCc2ccccc2)cc1C=O
160 to 162	O=C(Nc1ccc(-n2nc(C(F)(F)F)cc2C(F)(F)F)cc1)c1cc(F)c(Cl)cc1F
100 to 104	CC(C(=O)O)N(C(=O)OC(C)(C)C)c1ccc([N+](=O)[O-])cc1 (stereo not drawn)
180 to 181	NC(=O)CC(=O)c1ccc(-c2ccc(Cl)cc2)o1
72 to 74	Cc1cn(C(C)C(=O)N2CCCC2)nc1-c1ccccc1 (stereo not drawn)
126 to 128	O=C(NC1CCN(CCC2CCOc3ccccc32)CC1)c1cccnc1 (stereo not drawn)
114 to 116	Cc1nc2ccccc2c(=O)n1CCCl
56 to 67	COc1cccc(C(=O)c2cccc(F)c2)c1
145 to 146	CCOC(=O)c1c(C)cc2c(c1C)c(=O)n(-c1ccccc1Cl)c(=O)n2CCCN(C)Cc1ccccc1
160 to 161	Fc1cc(F)c(-c2c(F)nc3nncnc3c2F)c(F)c1
188 to 189	COc1ccc(-c2ccc(=O)[nH]n2)cc1OC1CC2CCC1C2 (stereo not drawn)
89.7 to 92.1	NCCNC(=O)Cc1ccsc1
102 to 104	COc1cc(CO)ncc1C
120 to 122	CC(C)(C)OC(=O)N[C@H]1C[C@@H](CON2C(=O)c3ccccc3C2=O)C1
125 to 126	COC(=O)c1sc(S(C)(=O)=O)cc1OCc1ccccc1

melting point [°C]	Structure (SMILES)
187 to 189	COc1cc(CCC=CC(=O)CCC(=O)O)cc(OC)c1OC
58	CC1(C(=O)Cn2cncn2)CC1
90 to 91	Cn1ncc(-c2ccc(OCCCCl)cc2)cc1=O
148 to 150	C=CCONC(=O)c1nc(-c2ccc(Cl)c(OC)c2F)nc(N)c1OC
75	CC(C)(c1ccc(O)cc1)c1ccc(OC#N)cc1
70 to 71	N#CC(=O)c1ccc(Cl)c(Cl)c1
192	CN1CCN(c2ccc(-c3[nH]nc4c3C(=O)c3c(NC(=O)NN(C)C)cccc3-4)cc2)CC1
138 to 140	CCOC(=O)C1COc2ccc(NC(C)=O)cc2O1 (stereo not drawn)
55 to 56	CCN(CC)C(=O)n1nc(C(C)(C)C)cc1SC
205 to 208	O=C(O)c1nn(CCCCCCl)c2c1CCc1cc(Cl)sc1-2
211 to 213	Cc1c(Cl)nc2sc(S(=O)(=O)Cc3ccccc3)nn2c1=O
227 to 230	COc1ccc(N2CCOCC2)cc1NC(=O)c1ncc[nH]1
96 to 99	COCc1nc2cnc3ccccc3c2n1CC(C)C
139 to 140	CC(=O)NCc1ccc(CN2CCN(c3cccnc3)CC2)cc1
232 to 235	CC(=O)N1c2ccc(F)cc2CC1C(N)=O (stereo not drawn)
176 to 178	Cc1cccc2c(=O)[nH]c(CCN3CC[C@H](O)C3)cc12
139 to 140	Cc1cc(Oc2ccc(Cl)c3c2CCCC3)c(Cl)cc1[N+](=O)[O-]
230 to 233	ON=C(c1ccccc1)c1ccc(C(=NO)c2ccccc2)cc1
166 to 167	CC(C)(C)c1cc(CCc2ccccc2NC(=O)NCCN2CCOCC2)cc(C(C)(C)C)c1O
81 to 85	CC(Cc1c[nH]c2ccccc12)(NS(=O)(=O)CC12CCC(CC1=O)C2(C)C)C(=O)NC(CO)Cc1ccccc1 (stereo not drawn)
135 to 138	Cc1cc2c(c(C)c1NC=O)CC(C)(CI)O2 (stereo not drawn)
230 to 233	NC(=O)c1cc([N+](=O)[O-])ccc1I
140 to 141	CC(=O)OCCn1ccc(=O)c(O)c1Cc1ccccc1
154	COc1ccc(OC)c(Nc2nc(-c3cccc([N+](=O)[O-])c3)cs2)c1
117 to 118	O=C(CCCCCCC(=O)N1CCN(CC(c2ccccc2)c2ccccc2)CC1)NO
217 to 218	O=C(N[C@H](Cc1ccc(C(F)(F)F)cc1)[C@@H](O)c1cccc2ccccc12)c1cccc2ccccc12 (racemic)

melting point [°C]	Structure (SMILES)
157 to 159	CC(C)(C)OC(=O)NC1CCCCCC=CC2CC2(C(=O)NS(=O)(=O)C2CC2)NC(=O)C2CC(OC(=O)c3cccnc3)CN2C1=O (stereo not drawn)
134 to 135	CCCCc1nc(CCCC)n(Cc2ccc(-c3ccccc3C(=O)O)cc2)n1
207 to 208	CSc1cccc(COCCCO)c1NC(=O)CC1c2ccccc2Oc2ccccc21
172 to 174	COc1ccc(C(=O)Nc2ccccc2)cc1NC(=S)Nc1ccccc1C
114 to 115	Clc1ncnc2c1CCOc1ccccc1-2
113 to 114	Clc1nc(Cl)nc(Oc2ccccc2)n1
80 to 82	COCC(=O)N(c1c(C)ccc(Cl)c1C)C1CCOC1=O (stereo not drawn)
154 to 158	CC(N)=NS(=O)(=O)C=Cc1c(Cl)cccc1Cl
89 to 91	CC(C)(C)NCC(O)COc1cccc2nsnc12 (stereo not drawn)
75 to 76	CCOC(=O)c1cc(C=O)cn1C
167 to 169	COC(=O)C1CCC2(C)C(=CC(=O)C3C2CCC2(C)C(C(=O)OC)CCC32)C1 (stereo not drawn)
144 to 145	NC(=O)c1ccccc1-c1ccc2ccc(SCc3ccccc3)nc2n1
200 to 201	COc1cc(OC)cc(N2CCN(C(=O)Nc3cc4ccccc4nc3OC)CC2)c1
192 to 194	COC(=O)C(=CNc1sccc1C(=O)O)SC
127 to 128	CCN1CCC/C1=C\c1nc(-c2ccc(F)cc2)c(-c2ccncc2)n1CCCc1ccccc1
250 to 253	N#Cc1cc(C2=Nc3ccc(-c4ccc(F)cc4F)cc3NC(=O)C2)ccn1
150 to 152	CC(=O)c1cc(N2CCOCC2)ccc1NC(=O)c1cccc2c1OCO2
132 to 134	Nc1cccc(NC(=S)Nc2ccc(Cl)cc2)c1
93 to 96	CSc1nc(Cl)cc(-c2ccc(C(F)(F)F)cc2)n1
85 to 87	CN(C)CCCOc1ccc(Nc2nccc(-c3cccnc3)n2)cc1
380	CN1c2ccccc2Sc2cc(C=CC3(C=Cc4ccc5c(c4)Sc4ccccc4N5C)C=CC(c4ccccc4)=CC3)ccc21 (stereo not drawn)
195 to 196	N#Cc1cccc(-c2cc(-c3ccccc3C(=O)O)on2)c1
133	CCOC(=O)CCC(S)COC(=O)C1=C(C)NC(C)=C([N+](=O)[O-])C1c1ccccc1OCc1ccccc1 (stereo not drawn)
119 to 120	CCOC(=O)C=Cc1ccc([N+](=O)[O-])c(OC)c1
360	C=CCOc1ccc(-c2ccc(C(=O)O)cc2)cc1
66 to 71	CC(C)CC(NC(=O)C(C)CS)C(=O)O (stereo not drawn)

melting point [°C]	Structure (SMILES)
147 to 148	O=C(Nc1nnn(CC2CC2)n1)C(c1ccccc1)c1ccccc1
192	CC(C)(C)CC1NC(C(=O)NCC2CCC(O)CC2)C(c2cccc(Cl)c2F)C12C(=O)Nc1cc(Cl)ccc12 (stereo not drawn)
210	O=C(N[C@H]1CC[C@H](CCN2CCN(c3nccc4c3CCO4)CC2)CC1)c1ccc(F)cc1
205 to 206	CC(=O)N1Cc2cccc3[nH]cc(c23)C1
148 to 149	COc1ccc(CCOc2cc(-c3cccc(C(=O)O)c3)ccn2)cc1OC
160 to 164	CC(C)C[C@@H](CO)NC(=O)N1C(=O)C(OC(=O)N2CCN(c3ccncc3)CC2)(c2ccccc2OC(C)C)c2cc(Cl)ccc21 (stereo partly drawn)
129 to 130	O=C(NCc1cc(C(F)(F)F)cc(C(F)(F)F)c1)c1oc(=O)c2ncccc2c1-c1ccccc1
292 to 294	COc1ccc(C(=O)Nc2nc(-c3cccc(C#N)c3)c(-n3cncn3)s2)cc1
177	CNc1ccc(N2CCC(C)CC2)c(C(=O)c2ccc(Cl)cc2)c1
193 to 194	COc1ccc(C(=O)N[C@H]2CCN(C)C[C@H]2c2ccc3c(c2)OCO3)cc1OC (relative stereo)
173 to 174	ON(Cn1nnc2ccccc21)Cn1nnc2ccccc21
39.6 to 40.1	CCCCC(OCC(=O)c1ccccc1)C(F)CC (stereo not drawn)
116 to 118	Cc1ccc(S(=O)(=O)OCC2Cc3cccc(-c4ccc(C(F)(F)F)cc4)c3O2)cc1 (stereo not drawn)
200 to 201	Cn1cc(C(=S)NCc2ccc(Cl)cc2)c(=O)c2cc(C#CCO)ccc21
114 to 116	OCC1CN(C(c2ccccc2)c2ccccc2)C1
86 to 88	COc1ccc(S(=O)(=O)C(C)(Cc2ccc(Br)cc2)C(=O)NO)cc1 (stereo not drawn)
163 to 165	CCN(CC)c1ccc(C(=O)C#Cc2ccnc3ccccc23)cc1
134 to 136	CO[C@@H]1O[C@H](C(N)=O)[C@H]2OC(C)(C)O[C@@H]12
99 to 100	NS(=O)(=O)NC[C@H]1COc2cc(Cl)ccc2O1
224 to 226	O=C1OCc2c1oc1cccc(F)c1c2=O
177 to 180	CN1CCN(C2=Nc3cc(C(F)(F)F)ccc3N3CCc4cccc2c43)CC1
125 to 126	ON=Cc1cc(Cl)ccc1O
102 to 103	O=C(O[C@H]1OCCN(Cc2ccccc2)[C@H]1c1ccc(F)cc1)c1cc(C(F)(F)F)cc(C(F)(F)F)c1
175 to 176	COCCCNC(=O)Nc1ccc(N2CCOCC2)cc1C(=O)NCC1CCN(C(c2ccccc2)c2ccccc2)CC1

Structure (SMILES)	melting point [°C]
[N-]=[N+]=Nc1ccc(CBr)cc1Cl	75 to 77

Reference: a melting point compilation (Tetko et al.; mined from patent text by program, amines drawn as free bases though some values may be those of a salt)
